Experimental data as given in EP3572411A1, “THIAZOLE DERIVATIVES AS METALLO-BETA-LACTAMASE INHIBITORS” (Antabio SAS, priority 2018, dated 2019).
Where two headings read alike, the source gives them in different places.

Key:
Test in all cases: In vitro enzyme inhibition assay (imipenem hydrolysis, UV 299 nm)
Type in all cases: biochemical
IMP-1 = biological target: T1, IMP-1 (Serratia marcescens, UniProt P52699)
T1 construct: VIM-1; VIM-2
Protocol: (§1) In vitro enzyme inhibition assays: Enzyme inhibition assays are performed using purified MBL enzymes (NDM-1; VIM-1; VIM-2; IMP-1) in 10mM HEPES buffer pH 7.5 in 96-well microtiter plates. Imipenem (300µM) is used as substrates and its hydrolysis is followed at UV 299 nm during 10mn every 30 seconds using a Perkin Elmer Envision UV fluorescence plate reader. Hydrolysis rate data in presence of a range of inhibitors are analysed using Dotmatics database software and calculated IC50 values are converted to Ki values using the Cheng-Prusoff equation. Ki = IC50 / (1+([S]/Km) and where the Km values for […] are 70 µM, 1.5 µM, 9 µM and 25 µM respectively. Compound dilution is performed in DMSO. Mean Ki values from multiple experiments are presented. Results are shown in Table 1.

VIM-2 = biological target: T2, VIM-2 (Escherichia coli, UniProt Q5U7L7); conditions: read-out: Ki (µM) VIM-2; purified enzyme, 10mM HEPES pH 7.5, Imipenem 300µM; mean Ki from IC50 by Cheng-Prusoff
T2 construct: VIM-1; VIM-2
Protocol: as §1

NDM-1 = biological target: T3, NDM-1 (Klebsiella pneumoniae, UniProt C7C422)
T3 construct: VIM-1; VIM-2
T3 sequence (C7C422 29-270, looked up): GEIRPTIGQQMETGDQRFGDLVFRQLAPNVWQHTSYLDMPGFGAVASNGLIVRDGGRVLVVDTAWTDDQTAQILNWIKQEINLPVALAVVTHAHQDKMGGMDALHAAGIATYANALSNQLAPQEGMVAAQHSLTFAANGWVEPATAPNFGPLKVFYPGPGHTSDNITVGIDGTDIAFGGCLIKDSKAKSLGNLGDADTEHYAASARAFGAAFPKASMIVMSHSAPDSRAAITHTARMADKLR
Protocol: as §1

VIM-1 = biological target: T4, VIM-1 (Pseudomonas aeruginosa, UniProt A0A0F7KYQ8)
T4 construct: VIM-1; VIM-2; IMP-1)
Protocol: as §1

[1] = read-out: Ki (µM) IMP-1; purified enzyme, 10mM HEPES pH 7.5, Imipenem 300µM; mean Ki from IC50 by Cheng-Prusoff
[2] = read-out: Ki (µM) NDM-1; purified enzyme, 10mM HEPES pH 7.5, Imipenem 300µM; mean Ki from IC50 by Cheng-Prusoff
[3] = read-out: Ki (µM) VIM-1; purified enzyme, 10mM HEPES pH 7.5, Imipenem 300µM; mean Ki from IC50 by Cheng-Prusoff

T1 sequence (P52699 19-246, looked up, species assumed): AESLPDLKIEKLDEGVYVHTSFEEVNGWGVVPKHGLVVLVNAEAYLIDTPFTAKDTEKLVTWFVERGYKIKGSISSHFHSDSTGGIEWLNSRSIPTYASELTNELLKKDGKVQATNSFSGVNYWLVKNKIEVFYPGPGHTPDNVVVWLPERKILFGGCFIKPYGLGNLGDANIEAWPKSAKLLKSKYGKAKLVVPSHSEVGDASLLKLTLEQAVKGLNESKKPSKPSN

| SMILES | Ki (IMP-1; [1]) [µM] | Ki (VIM-2) [µM] | Ki (NDM-1; [2]) [µM] | Ki (VIM-1; [3]) [µM] | Ki (IMP-1; purified enzyme, 10mM HEPES pH 7.5, Imipenem 300µM; mean Ki from IC50 by Cheng-Prusoff; read-out: Ki (µM) IMP-1) [µM] | Ki (NDM-1; purified enzyme, 10mM HEPES pH 7.5, Imipenem 300µM; mean Ki from IC50 by Cheng-Prusoff; read-out: Ki (µM) NDM-1) [µM] | Ki (VIM-1; purified enzyme, 10mM HEPES pH 7.5, Imipenem 300µM; mean Ki from IC50 by Cheng-Prusoff; read-out: Ki (µM) VIM-1) [µM] |
| --- | --- | --- | --- | --- | --- | --- | --- |
| C[n+]1ccn(CC(=O)Nc2ccc(S(=O)(=O)Nc3scnc3C(=O)[O-])cc2F)c1 [Example 1, 1-[({4-[(4-carboxy-1,3-thiazol-5-yl)sulfamoyl]-2-fluorophenyl}carbamoyl)methyl]-3-methyl-1H-imidazol-3-ium] | 1 to 8 | 0.05 to 0.2 | < 0.05 | 0.2 to 0.5 |  |  |  |
| Cc1n(CC(=O)Nc2ccc(S(=O)(=O)Nc3scnc3C(=O)[O-])cc2F)cc[n+]1C [Example 2, 1-[({4-[(4-carboxy-1,3-thiazol-5-yl)sulfamoyl]-2-fluorophenyl}carbamoyl)methyl]-2,3-dimethyl-1H-imidazol-3-ium] | 1 to 8 | 0.05 to 0.2 | 0.05 to 0.2 | 0.2 to 0.5 |  |  |  |
| C[n+]1ccn(CC(=O)Nc2ccc(S(=O)(=O)Nc3scnc3C(=O)[O-])cc2F)c1N [Example 3, 2-amino-1-[({4-[(4-carboxy-1,3-thiazol-5-yl)sulfamoyl]-2-fluorophenyl}carbamoyl)methyl]-3-methyl-1H-imidazol-3-ium] | 1 to 8 | 0.05 to 0.2 | 0.05 to 0.2 | 0.2 to 0.5 |  |  |  |
| CSc1n(CC(=O)Nc2ccc(S(=O)(=O)Nc3scnc3C(=O)[O-])cc2F)cc[n+]1C [Example 4] |  |  |  |  | 1 to 8 | 0.05 to 0.2 | 0.2 to 0.5 |
| O=C(Cn1cc[n+]2c1COCC2)Nc1ccc(S(=O)(=O)Nc2scnc2C(=O)[O-])cc1F [Example 5, 1-[({4-[(4-carboxy-1,3-thiazol-5-yl)sulfamoyl]-2-fluorophenyl}carbamoyl)methyl]-1H,5H,6H,8H-4lambda5-imidazo[2,1-c][1,4]oxazin-4-ylium] | 1 to 8 | 0.05 to 0.2 | 0.05 to 0.2 | 0.5 to 0.8 |  |  |  |
| Cc1c[n+](C)cn1CC(=O)Nc1ccc(S(=O)(=O)Nc2scnc2C(=O)[O-])cc1F [Example 6, 1-[({4-[(4-carboxy-1,3-thiazol-5-yl)sulfamoyl]-2-fluorophenyl}carbamoyl)methyl]-3,5-dimethyl-1H-imidazol-3-ium] | 1 to 8 | 0.05 to 0.2 | 0.2 to 0.4 | 0.5 to 0.8 |  |  |  |
| Cc1cn(CC(=O)Nc2ccc(S(=O)(=O)Nc3scnc3C(=O)[O-])cc2F)c[n+]1C [Example 7, 1-[({4-[(4-carboxy-1,3-thiazol-5-yl)sulfamoyl]-2-fluorophenyl}carbamoyl)methyl]-3,4-dimethyl-1H-imidazol-3-ium] | 1 to 8 | 0.02 to 0.05 | 0.2 to 0.4 | < 0.2 |  |  |  |
| C[n+]1c(N)ccn1CC(=O)Nc1ccc(S(=O)(=O)Nc2scnc2C(=O)[O-])cc1F [Example 8, 3-amino-1-[({4-[(4-carboxy-1,3-thiazol-5-yl)sulfamoyl]-2-fluorophenyl}carbamoyl)methyl]-2-methyl-1H-pyrazol-2-ium] | 1 to 8 |  | 0.05 to 0.2 | 0.2 to 0.5 |  |  |  |
| C[n+]1ccn(CC(=O)Nc2ccc(S(=O)(=O)Nc3scnc3C(=O)[O-])cc2F)n1 [Example 9, 1-[({4-[(4-carboxy-1,3-thiazol-5-yl)sulfamoyl]-2-fluorophenyl}carbamoyl)methyl]-3-methyl-1H-1,2,3-triazol-3-ium] | 1 to 8 | 0.05 to 0.2 | < 0.05 | 0.2 to 0.5 |  |  |  |
| C[n+]1cccn1CC(=O)Nc1ccc(S(=O)(=O)Nc2scnc2C(=O)[O-])cc1F [Example 10, 1-[({4-[(4-carboxy-1,3-thiazol-5-yl)sulfamoyl]-2-fluorophenyl}carbamoyl)methyl]-2-methyl-1H-pyrazol-2-ium] | 1 to 8 |  | 0.05 to 0.2 | 0.2 to 0.5 |  |  |  |
| NCC[n+]1ccn(CC(=O)Nc2ccc(S(=O)(=O)Nc3scnc3C(=O)[O-])cc2F)c1 [Example 11, 3-(2-aminoethyl)-1-[({4-[(4-carboxy-1,3-thiazol-5-yl)sulfamoyl]-2-fluorophenyl}carbamoyl)methyl]-1H-imidazol-3-ium] | 1 to 8 | 0.02 to 0.05 | < 0.05 | < 0.2 |  |  |  |
| N=C(N)NCC[n+]1ccn(CC(=O)Nc2ccc(S(=O)(=O)Nc3scnc3C(=O)[O-])cc2F)c1 [Example 12, 3-(2-carbamimidamidoethyl)-1-[({4-[(4-carboxy-1,3-thiazol-5-yl)sulfamoyl]-2-fluorophenyl}carbamoyl)methyl]-1H-imidazol-3-ium] | 1 to 8 | 0.05 to 0.2 | < 0.05 | < 0.2 |  |  |  |
| C[n+]1ccn(CC(=O)Nc2c(F)cc(S(=O)(=O)Nc3scnc3C(=O)[O-])cc2F)c1 [Example 13, 1-[({4-[(4-carboxy-1,3-thiazol-5-yl)sulfamoyl]-2,6-difluorophenyl}carbamoyl)methyl]-3-methyl-1H-imidazol-3-ium] | 1 to 8 | 0.05 to 0.2 | 0.05 to 0.2 | 0.5 to 0.8 |  |  |  |
| NCC[n+]1ccn(CC(=O)Nc2c(F)cc(S(=O)(=O)Nc3scnc3C(=O)[O-])cc2F)c1 [Example 14, 3-(2-aminoethyl)-1-[({4-[(4-carboxy-1,3-thiazol-5-yl)sulfamoyl]-2,6-difluorophenyl}carbamoyl)methyl]-1H-imidazol-3-ium] | 1 to 8 | 0.02 to 0.05 | < 0.05 | < 0.2 |  |  |  |
| N=C(N)NCC[n+]1ccn(CC(=O)Nc2c(F)cc(S(=O)(=O)Nc3scnc3C(=O)[O-])cc2F)c1 [Example 15, 1-(2-carbamimidamidoethyl)-3-[({4-[(4-carboxy-1,3-thiazol-5-yl)sulfamoyl]-2,6-difluorophenyl}carbamoyl)methyl]imidazol-1-ium] | 1 to 8 | 0.02 to 0.05 | < 0.05 | < 0.2 |  |  |  |
| NCCC[n+]1ccn(CC(=O)Nc2ccc(S(=O)(=O)Nc3scnc3C(=O)[O-])cc2F)c1 [Example 16, 3-(3-aminopropyl)-1-[({4-[(4-carboxy-1,3-thiazol-5-yl)sulfamoyl]-2-fluorophenyl}carbamoyl)methyl]-1H-imidazol-3-ium] | 1 to 8 | < 0.02 | < 0.05 | < 0.2 |  |  |  |
| N#Cc1cc(S(=O)(=O)Nc2scnc2C(=O)[O-])ccc1NC(=O)Cn1cc[n+](CCN)c1 [Example 18, 3-(2-aminoethyl)-1-[({4-[(4-carboxy-1,3-thiazol-5-yl)sulfamoyl]-2-cyanophenyl}carbamoyl)methyl]-1H-imidazol-3-ium] | 0.5 to 1 | < 0.02 | 0.05 to 0.2 | < 0.2 |  |  |  |
| N#Cc1cc(S(=O)(=O)Nc2scnc2C(=O)[O-])ccc1NC(=O)Cn1cc[n+](CCNC(=N)N)c1 [Example 19, 3-(2-carbamimidamidoethyl)-1-[({4-[(4-carboxy-1,3-thiazol-5-yl)sulfamoyl]-2-cyanophenyl}carbamoyl)methyl]-1H-imidazol-3-ium] | 1 to 8 | 0.02 to 0.05 | 0.2 to 0.4 | < 0.2 |  |  |  |
| CN(C)CC[n+]1ccn(CC(=O)Nc2ccc(S(=O)(=O)Nc3scnc3C(=O)[O-])cc2F)c1 [Example 20, 3-[({4-[(4-carboxy-1,3-thiazol-5-yl)sulfamoyl]-2-fluorophenyl}carbamoyl)methyl]-1-[2-(dimethylamino)ethyl]imidazol-1-ium] | 1 to 8 | 0.05 to 0.2 | < 0.05 | < 0.2 |  |  |  |
| C[n+]1cn(CC(=O)Nc2ccc(S(=O)(=O)Nc3scnc3C(=O)[O-])cc2F)cn1 [Example 22, 4-[({4-[(4-carboxy-1,3-thiazol-5-yl)sulfamoyl]-2-fluorophenyl}carbamoyl)methyl]-1-methyl-1,2,4-triazol-1-ium] | 0.5 to 1 | 0.05 to 0.2 | 0.05 to 0.2 | 0.2 to 0.5 |  |  |  |
| C[n+]1ccn(CC(=O)Nc2c(F)cc(S(=O)(=O)Nc3scnc3C(=O)[O-])cc2F)n1 [Example 23, 1-[({4-[(4-carboxy-1,3-thiazol-5-yl)sulfamoyl]-2,6-difluorophenyl}carbamoyl)methyl]-3-methyl-1H-1,2,3-triazol-3-ium] | 1 to 8 | 0.05 to 0.2 | 0.05 to 0.2 | 0.2 to 0.5 |  |  |  |
| CC[n+]1ccn(CC(=O)Nc2ccc(S(=O)(=O)Nc3scnc3C(=O)[O-])cc2F)n1 [Example 24, 1-[({4-[(4-carboxy-1,3-thiazol-5-yl)sulfamoyl]-2-fluorophenyl}carbamoyl)methyl]-3-ethyl-1H-1,2,3-triazol-3-ium] | 0.5 to 1 | 0.05 to 0.2 | 0.05 to 0.2 | 0.2 to 0.5 |  |  |  |
| C[n+]1cnn(CC(=O)Nc2ccc(S(=O)(=O)Nc3scnc3C(=O)[O-])cc2F)c1 [Example 25, 1-[({4-[(4-carboxy-1,3-thiazol-5-yl)sulfamoyl]-2-fluorophenyl}carbamoyl)methyl]-4-methyl-1H-1,2,4-triazol-4-ium] | 1 to 8 | 0.05 to 0.2 | 0.05 to 0.2 | 0.2 to 0.5 |  |  |  |
